Experimental data: PubChem BioAssay (NCI)
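Results reflect a 48-hour exposure of cells in 96-well plates to compound at five concentrations. Here, GI50 denotes the concentration required for 50% inhibition of growth. TGI denotes the concentration required for complete inhibition of growth.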

Legend:
Test in all cases: inhibition of tumour cell growth, NCI panel, 48 h
SR leukemia = test system: SR leukemia
SK-MEL-5 melanoma = test system: SK-MEL-5 melanoma
SK-MEL-2 melanoma = test system: SK-MEL-2 melanoma
COLO 205 colon = test system: COLO 205 colon
UACC-62 melanoma = test system: UACC-62 melanoma
DU-145 prostate = test system: DU-145 prostate
NCI-H522 lung = test system: NCI-H522 lung
HCT-15 colon = test system: HCT-15 colon
786-0 renal = test system: 786-0 renal
TK-10 renal = test system: TK-10 renal
SNB-19 CNS = test system: SNB-19 CNS
MALME-3M melanoma = test system: MALME-3M melanoma
A549 NSCLC = test system: A549 NSCLC
PC-3 prostate = test system: PC-3 prostate
M14 melanoma = test system: M14 melanoma
HCT-116 colon = test system: HCT-116 colon
U251 CNS = test system: U251 CNS
A498 renal = test system: A498 renal

SMILES	TGI (SR leukemia)	TGI (SK-MEL-5 melanoma)	TGI (SK-MEL-2 melanoma)	TGI (COLO 205 colon)	TGI (UACC-62 melanoma)	TGI (DU-145 prostate)	TGI (NCI-H522 lung)	TGI (HCT-15 colon)	TGI (786-0 renal)	TGI (TK-10 renal)	TGI (SNB-19 CNS)	TGI (MALME-3M melanoma)	TGI (A549 NSCLC)	TGI (PC-3 prostate)	TGI (M14 melanoma)	TGI (HCT-116 colon)	TGI (U251 CNS)	TGI (A498 renal)	GI50 (HCT-116 colon)
Cc1ccc([N+](=O)[O-])cc1S(=O)(=O)Nc1ccc(C(=O)/C=C/c2ccccc2)cc1	54.7 µM	32.1 µM	38.2 µM	44.9 µM	28.1 µM	29.5 µM	53 µM	48.7 µM	33.1 µM	> 100 µM	39.6 µM	39.5 µM	> 100 µM	30.6 µM	43.1 µM	29.3 µM			
O=c1[nH]ncc2[nH]c(-c3ccccc3)cc12	> 100 µM	60.5 µM	71 µM	> 100 µM	> 100 µM	> 100 µM		> 100 µM	> 100 µM	> 100 µM	> 100 µM	> 100 µM	> 100 µM	95.1 µM	> 100 µM	> 100 µM	> 100 µM		
Cn1c(=O)oc2cc(C(=O)CN3CCN(Cc4ccc5c(c4)OCO5)CC3)c(Cl)cc21	> 100 µM	> 100 µM	> 100 µM	> 100 µM	> 100 µM	> 100 µM		> 100 µM	> 100 µM		> 100 µM	> 100 µM		> 100 µM		> 100 µM	> 100 µM		
O=C1CCN(CCC(F)(F)C(F)(F)C(F)(F)C(F)(F)F)C(=S)N1	> 100 µM	> 100 µM	> 100 µM	> 100 µM	> 100 µM		> 100 µM	> 100 µM	> 100 µM	> 100 µM	> 100 µM	> 100 µM	> 100 µM		> 100 µM	> 100 µM	> 100 µM		
COc1cc(/C=C(\C)c2ccc3c(c2)OCO3)cc(OC)c1OC	59.7 µM	24.2 µM	63.6 µM	39.7 µM			69 µM	> 100 µM	> 100 µM	> 100 µM	> 100 µM	62.1 µM	> 100 µM		> 100 µM	> 100 µM	> 100 µM	83.5 µM	
Brc1ccc(N=C/C=C(\Nc2ccc(Br)cc2)C23CC4CC(CC(C4)C2)C3)cc1		26.6 µM	28.3 µM	47.3 µM	15 µM	35.4 µM	30.5 µM	> 46.6 µM	28.9 µM	28.6 µM	> 100 µM	42.8 µM	> 100 µM	41 µM	71 µM	23.8 µM	28.7 µM	79.7 µM	
COc1cc(/C=C2\N=C(c3ccccc3)N(c3ccc4c(c3)Sc3cc(N5C(=O)/C(=C/c6cc(OC)c(OC)c(OC)c6)N=C5c5ccccc5)ccc3N4)C2=O)cc(OC)c1OC		30.1 µM	36.5 µM	47.4 µM	31.4 µM	> 100 µM	42.5 µM	> 100 µM	40.9 µM	30.9 µM	39.8 µM	41.1 µM	> 100 µM	38.3 µM	80.8 µM	> 100 µM	44.2 µM	43.1 µM	
COc1ccc(-c2nc(SCC(=O)N/N=C/c3ccc([N+](=O)[O-])cc3)[nH]c2-c2ccc(OC)cc2)cc1		19.9 µM	20.5 µM	5.28 µM	20.5 µM	> 100 µM	29.7 µM	> 85.1 µM	> 93.1 µM	> 100 µM	> 100 µM	50.8 µM	> 100 µM	> 100 µM	32.3 µM	37.3 µM	29.4 µM	55.4 µM	
COc1ccccc1NC(=S)NNC(=O)c1cc(-c2ccccc2)nc2ccccc12	4.53 µM	19.8 µM	31.2 µM	45.8 µM	23.2 µM	32 µM	50 µM	20.2 µM	32.8 µM	> 100 µM	> 100 µM	28.9 µM	35 µM	49.3 µM	26.1 µM	25.6 µM	43.7 µM		
Cc1c(/C=N/NC(=S)Nc2ccc([N+](=O)[O-])cc2)c(=O)n(-c2ccccc2)n1C	> 100 µM	> 100 µM	30.5 µM	> 100 µM	33.7 µM			49.4 µM	27.3 µM	26.3 µM	31.8 µM			76.8 µM	28.6 µM	52.3 µM	30.9 µM	24 µM	
COc1ccc(-c2cc(=O)c3cc4c(cc3[nH]2)OCO4)c(OC)c1	74.2 µM	80.1 µM	> 100 µM	> 100 µM	> 100 µM		> 100 µM	> 100 µM	> 100 µM	> 100 µM	> 100 µM	77.2 µM	> 100 µM		> 100 µM	> 100 µM	> 100 µM		40.7 µM
CN(NC(=O)c1ccc(Cl)cc1)C1=NCCCCN1	> 100 µM	> 100 µM	> 100 µM	> 100 µM	> 100 µM		> 100 µM	> 100 µM	> 100 µM	> 100 µM	> 100 µM	> 100 µM	> 100 µM	> 100 µM	> 100 µM	> 100 µM	> 100 µM	> 100 µM	
NC(=S)N/N=C/c1cn(CCCl)c2ccccc12	> 100 µM	67.4 µM	> 100 µM	> 100 µM	> 100 µM		> 100 µM	> 100 µM	> 100 µM	> 100 µM	> 100 µM	> 100 µM	> 100 µM		> 100 µM	> 100 µM			
ClCc1nnc2n1-c1ccc(Cl)cc1SC2		9.49 µM	9.22 µM	13 µM	8.51 µM		3.21 µM	23.8 µM			25.7 µM	15.8 µM	20.3 µM			12.7 µM	19.8 µM	16.1 µM	
